Drawing on patent US8183239B2, “Substituted piperazines and piperidines as modulators of the neuropeptide Y2 receptor” (Janssen Pharmaceutica NV, priority 2005, dated 2012), this text covers IC50 for 30 compounds.

Structures are written as SMILES. A value given as a limit tells only on which side of the number the result lay.

In this experiment the target is T1, Y2 receptors (Homo sapiens, UniProt P49146).
T1 construct: endogenous in cells; host or cells: KAN-Ts cells (membranes)
T1 sequence (P49146 1-381): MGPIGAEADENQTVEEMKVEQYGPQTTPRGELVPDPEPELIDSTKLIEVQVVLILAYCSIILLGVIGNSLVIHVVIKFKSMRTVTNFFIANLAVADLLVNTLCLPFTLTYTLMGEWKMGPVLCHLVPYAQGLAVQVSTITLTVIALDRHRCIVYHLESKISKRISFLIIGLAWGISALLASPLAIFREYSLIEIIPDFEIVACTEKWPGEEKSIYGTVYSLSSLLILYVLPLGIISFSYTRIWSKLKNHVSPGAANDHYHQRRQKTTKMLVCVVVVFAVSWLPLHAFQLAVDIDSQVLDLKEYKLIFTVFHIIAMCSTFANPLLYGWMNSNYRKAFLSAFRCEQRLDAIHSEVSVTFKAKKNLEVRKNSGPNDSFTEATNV
The experiment can be described thus: Radioligand binding assay ([125I]PYY, KAN-Ts cell membranes). The note with it: Table 2, [125I]PYY 80 pM, average of results, read-out: IC50. The procedure, abridged:
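Membranes from KAN-Ts cells endogenously expressing Y2 incubated 1 h at rt with 80 pM [^125I]PYY ± test compound in HEPES buffer with NaCl, Ca^2+ and Mg^2+. Bound radioactivity collected by filtration; specific binding defined with […]. IC50 from sigmoidal fit, averaged over 3-8 duplicate experiments.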
The IC50 is the concentration at which inhibition is half-maximal. For `CCOC(=O)C(c1ccccc1)N1CCN(c2ccc(N3CCN(C4CCN(CC)C4)S3(=O)=O)cc2F)CC1` (stereo not drawn) [Example 177, {4-[2-Fluoro-4-(5-(1-Ethyl-pyrrolidin-3-yl)-1,2,5-thiadiazolidine-2-yl, 1,1-dioxide)-phenyl]-piperazin-1-yl}-phenyl-acetic acid ethyl ester], the IC50 is at least 10000 nM.
In the case of `CCOC(=O)C(c1ccccc1)N1CCN(c2ccc(N3CCN(C4CCOC4)S3(=O)=O)cc2F)CC1` (stereo not drawn) [Example 178, {4-[2-Fluoro-4-(5-(tetrahydro-furan-3-yl)-1,2,5-thiadiazolidine-2-yl, 1,1-dioxide)-phenyl]-piperazin-1-yl}-phenyl-acetic acid ethyl ester] it was 2900 nM; in that of `CCCN1CCN(c2ccc(N3CCN(C(C(=O)OCC)c4ccccc4)CC3)c(F)c2)S1(=O)=O` (stereo not drawn) [Example 179, {4-[2-Fluoro-4-(5-propyl-1,2,5-thiadiazolidine-2-yl,1,1-dioxide)-phenyl]-piperazin-1-yl}-phenyl-acetic acid ethyl ester], 540 nM.
Regarding `CCOC(=O)C(c1ccccc1)N1CCN(c2ccc(N3CCN(C4CCCC4)S3(=O)=O)cc2F)CC1` (stereo not drawn) [Example 180, {4-[2-Fluoro-4-(5-cyclopentyl-1,2,5-thiadiazolidine-2-yl,1,1-dioxide)-phenyl]-piperazin-1-yl}-phenyl-acetic acid ethyl ester], the IC50 stood at 770 nM.
On to `CCN(CC)C(=O)C(c1ccccc1)N1CC=C(c2ccc(C(=O)OC)cc2F)CC1` (stereo not drawn) [Example 181, 4-[1-(Diethylcarbamoyl-phenyl-methyl)-1,2,3,6-tetrahydro-pyridin-4-yl]-3-fluoro-benzoic acid methyl ester], for which the IC50 was 9300 nM.
For the compound `CCC(CC)C(=O)Nc1cnc(N2CCN(C(C(=O)N(CC)CC)c3ccccc3)CC2)nc1` (stereo not drawn) [Example 182, N-{2-[4-(Diethylcarbamoyl-phenyl-methyl)-piperazin-1-yl]-pyrimidin-5-yl}-2-ethyl-butyramide], the IC50 is 1650 nM.
In the case of `CCC(CC)C(=O)Nc1ccc(N2CCN(C(C(=O)N(CC)CC)c3ccccc3)CC2)nn1` (stereo not drawn) [Example 183, N-{6-[4-(Diethylcarbamoyl-phenyl-methyl)-piperazin-1-yl]-pyridazin-3-yl}-2-ethyl-butyramide], the IC50 is 4500 nM.
Turning to `CCC(CC)C(=O)Nc1ccc(N2CCN(C(C(=O)NN)c3ccccc3)CC2)c(F)c1` (stereo not drawn) [Example 184, 2-Ethyl-N-{3-fluoro-4-[4-(hydrazinocarbonyl-phenyl-methyl)-piperazin-1-yl]-phenyl}-butyramide], the IC50 amounted to 870 nM.
For the compound `CCN(CC)C(=O)C(c1ccccc1)N1CCN(c2ccc(C(=O)OC)cc2F)CC1` (stereo not drawn) [Example 185, 4-[4-(Diethylcarbamoyl-phenyl-methyl)-piperazin-1-yl]-3-fluoro-benzoic acid methyl ester], the IC50 came to 2400 nM.
Consider `CCN(CC)C(=O)C(c1ccccc1)C1CCN(c2ccc(NC(=O)c3ccnn3CC)cc2F)CC1` (stereo not drawn) [Example 186, 2-Ethyl-2H-pyrazole-3-carboxylic acid {4-[4-(diethylcarbamoyl-phenyl-methyl)-piperidin-1-yl]-3-fluoro-phenyl}-amide], for which the IC50 turned out to be 210 nM.
As for `CCN(CC)C(=O)C(c1ccccc1)C1CCN(c2ccc(NC(=O)c3cccn3CC)cc2F)CC1` (stereo not drawn) [Example 187, 1-Ethyl-1H-pyrrole-2-carboxylic acid {4-[4-(diethylcarbamoyl-phenyl-methyl)-piperidin-1-yl]-3-fluoro-phenyl}-amide], the IC50 was 148 nM.
As to `CCCCC(O)(c1ccccc1)C1CCN(c2ccc(NC(=O)C(CC)CC)cc2F)CC1` (stereo not drawn) [Example 188, 2-Ethyl-N-{3-fluoro-4-[4-(1-hydroxy-1-phenyl-pentyl)-piperidin-1-yl]-phenyl}-butyramide], the 50% inhibitory concentration (IC50) turned out to be 200 nM.
In the case of `CCCCC(c1ccccc1)C1CCN(c2ccc(NC(=O)C(CC)CC)cc2F)CC1` (stereo not drawn) [Example 189, 2-Ethyl-N-{3-fluoro-4-[4-(1-phenyl-pentyl)-piperidin-1-yl]-phenyl}-butyramide] it was at least 10000 nM.
In the case of `CCC(CC)NC(=O)c1ccc(N2CCN(C(C(=O)N(CC)CC)c3ccccc3)CC2)c(F)c1` (stereo not drawn) [Example 190, 4-[4-(Diethylcarbamoyl-phenyl-methyl)-piperazin-1-yl]-N-(1-ethyl-propyl)-3-fluoro-benzamide] it was 5700 nM; in that of `CCN(CC)C(=O)C(c1ccccc1)N1CCN(c2ccc(Nc3ccccn3)cc2F)CC1` (stereo not drawn) [Example 191, N,N-Diethyl-2-{4-[2-fluoro-4-(pyridin-2-ylamino)-phenyl]-piperazin-1-yl}-2-phenyl-acetamide], 380 nM; in that of `CCN(CC)C(=O)C(c1ccccc1)N1CCN(c2ccc(Nc3ncccc3C)cc2F)CC1` (stereo not drawn) [Example 192, N,N-Diethyl-2-{4-[2-fluoro-4-(3-methyl-pyridin-2-ylamino)-phenyl]-piperazin-1-yl}-2-phenyl-acetamide], 5000 nM.
As for `CCC(CC)C(=O)Nc1ccc(C2=CCN(C(C(=O)N(CC)CC)c3ccccc3)CC2)c(F)c1` (stereo not drawn) [Example 193, N-{4-[1-(Diethylcarbamoyl-phenyl-methyl)-1,2,3,6-tetrahydro-pyridin-4-yl]-3-fluoro-phenyl}-2-ethyl-butyramide], the IC50 turned out to be 140 nM.
For `CCC(CC)C(=O)Nc1ccc(C2CCN(C(C(=O)N(CC)CC)c3ccccc3)CC2)c(F)c1` (stereo not drawn) [Example 194, N-{4-[1-(Diethylcarbamoyl-phenyl-methyl)-piperidin-4-yl]-3-fluoro-phenyl}-2-ethyl-butyramide], the IC50 is 100 nM.
With `CCC(CC)C(=O)Nc1ccc(N2CCN(C(C(=O)N(CC)CC)c3cccc(Cl)c3)CC2)c(F)c1` (stereo not drawn) [Example 195, N-(4-{4-[(3-Chloro-phenyl)-diethylcarbamoyl-methyl]-piperazin-1-yl}-3-fluoro-phenyl)-2-ethyl-butyramide], the IC50 is 50 nM.
For the compound `CCC(CC)C(=O)Nc1ccc(N2CCN(C(C(=O)N3CCC(F)(F)CC3)c3cccc(F)c3)CC2)c(F)c1` (stereo not drawn) [Example 196, N-(4-{4-[2-(4,4-Difluoro-piperidin-1-yl)-1-(3-fluoro-phenyl)-2-oxo-ethyl]-piperazin-1-yl}-3-fluoro-phenyl)-2-ethyl-butyramide], the IC50 amounted to 107 nM.
In the case of `CCC(CC)C(=O)Nc1ccc(N2CCN(C(C(=O)N(CC)CC)c3ccc(F)cc3F)CC2)c(F)c1` (stereo not drawn) [Example 197, N-(4-{4-[Diethylcarbamoyl-(2,4-difluoro-phenyl)-methyl]-piperazin-1-yl}-3-fluoro-phenyl)-2-ethyl-butyramide], the IC50 amounted to 150 nM.
Consider `CCC(CC)C(=O)Nc1ccc(N2CCN(C(C(=O)N3CCC(F)(F)C3)c3ccc(F)cc3)CC2)c(F)c1` (stereo not drawn) [Example 198, N-(4-{4-[2-(3,3-Difluoro-pyrrolidin-1-yl)-1-(4-fluoro-phenyl)-2-oxo-ethyl]-piperazin-1-yl}-3-fluoro-phenyl)-2-ethyl-butyramide], for which the IC50 was determined as 350 nM.
As for `CCC(CC)C(=O)Nc1ccc(N2CCN(C(C(=O)N3CCC(F)(F)C3)c3cccc(F)c3)CC2)c(F)c1` (stereo not drawn) [Example 199, N-(4-{4-[2-(3,3-Difluoro-pyrrolidin-1-yl)-1-(3-fluoro-phenyl)-2-oxo-ethyl]-piperazin-1-yl}-3-fluoro-phenyl)-2-ethyl-butyramide], the IC50 amounted to 148 nM.
For `CCC(CC)C(=O)Nc1ccc(N2CCN(C(C(=O)N(CC)CC)c3cc(Br)ccc3F)CC2)c(F)c1` (stereo not drawn) [Example 200, N-(4-{4-[(5-Bromo-2-fluoro-phenyl)-diethylcarbamoyl-methyl]-piperazin-1-yl}-3-fluoro-phenyl)-2-ethyl-butyramide], the IC50 stood at 15 nM.
Turning to `CCC(CC)C(=O)Nc1ccc(N2CCN(C(C(=O)N(CC)CC)c3ccc(F)c(F)c3)CC2)c(F)c1` (stereo not drawn) [Example 201, N-(4-{4-[Diethylcarbamoyl-(3,4-difluoro-phenyl)-methyl]-piperazin-1-yl}-3-fluoro-phenyl)-2-ethyl-butyramide], the IC50 was 330 nM.
In the case of `CCN(CC)C(=O)C(c1ccccc1)N1CCN(c2ccc(NC(=O)C3CCCC3)cn2)CC1` (stereo not drawn) [Example 202, Cyclopentanecarboxylic acid {6-[4-(diethylcarbamoyl-phenyl-methyl)-piperazin-1-yl]-pyridin-3-yl}-amide] it was 900 nM.
For `CCC(CC)C(=O)Nc1ccc(N2CCN(C(C(=O)N(CC)CC)c3ccccc3)CC2)nc1` (stereo not drawn) [Example 203, N-{6-[4-(Diethylcarbamoyl-phenyl-methyl)-piperazin-1-yl]-pyridin-3-yl}-2-ethyl-butyramide] the value was 735 nM.
For the compound `CCN(CC)C(=O)C(c1ccccc1)C1CCN(c2ccc(NC(=O)C3CCCC3)cn2)CC1` (stereo not drawn) [Example 204, Cyclopentanecarboxylic acid [4-(diethylcarbamoyl-phenyl-methyl)-3,4,5,6-tetrahydro-2H-[1,2′]bipyridinyl-5′-yl]-amide], the half-maximal inhibitory concentration (IC50) was 400 nM.
Consider `CCC(CC)C(=O)Nc1ccc(N2CCC(C(C(=O)N(CC)CC)c3ccccc3)CC2)nc1` (stereo not drawn) [Example 205, N-[4-(Diethylcarbamoyl-phenyl-methyl)-3,4,5,6-tetrahydro-2H-[1,2′]bipyridinyl-5′-yl]-2-ethyl-butyramide], for which the IC50 was 300 nM.
On to `CCC(CC)C(=O)Nc1ccc(N2CCC(C(C(=O)N3CCC(F)CC3)c3ccccc3)CC2)c(F)c1` (stereo not drawn) [Example 206, 2-Ethyl-N-(3-fluoro-4-{4-[2-(4-fluoro-piperidin-1-yl)-2-oxo-1-phenyl-ethyl]-piperidin-1-yl}-phenyl)-butyramide], for which the IC50 turned out to be 20 nM.
